Patent US11001569B2, “6-membered heteroaromatic substituted cyanoindoline derivatives as NIK inhibitors” (Janssen Pharmaceutica NV, priority 2016, dated 2021)
Like-named read-outs stand apart in the source and are kept apart here.

Legend:
[1] = tested on: P-IKKα levels in L363 (NIK translocated multiple myeloma) cells; assay: Effect of compounds on P-IKKα levels in L363 cells (Mesoscale sandwich immuno-assay); format: cell-based, human; conditions: Homo sapiens, L-363, 2 h, 2 hr treatment, averaged values, read-out: Inhibition of pIKKα_L-363 (IC50 (nM))
Description: Effect of Compounds on P-IKKα Levels in L363 (NIK Translocated Multiple Myeloma) Cells
All compounds tested were dissolved in DMSO and further dilutions were made in culture medium. Final DMSO concentration was 1% (v/v) in cell assays. The human L363 cells (ATCC) were cultured in RPMI 1640 medium supplemented with GlutaMax and 10% fetal calf serum (PAA). Cells were routinely maintained at densities of 0.2×10^6 cells per ml-1×10^6 cells per ml at 37° C. in a humidified 5% CO2 atmosphere. Cells were passaged twice a week splitting back to obtain the low density. Cells were seeded in 96 well plates (Nunc 167008) at 2×10^6 per ml media in a volume of 75 μl per well plus 25 μl 1 μg/ml recombinant human B-cell activating factor (BAFF/BLyS/TNFSF13B). Seeded cells were incubated at 37° C. in a humidified 5% CO2 atmosphere for 24 hr. Drugs and/or solvents were added (20 μl) to a final volume of 120 μl. Following 2 hr treatment plates were removed from the incubator and cell lysis was achieved by the addition of 30 μl 5× lysis buffer followed by shaking on a plate shaker at 4° C. for 10 min. At the end of this incubation lysed cells were centrifuged at 800×g for 20 min at 4° C. and the lysate was assessed for P-IKK levels by sandwich immuno-assay carried out in anti-rabbit antibody coated Mesoscale plates. Within an experiment, the results for each treatment were the mean of 2 replicate wells. For initial screening purposes, compounds were tested using an 8 point dilution curve (serial 1:3 dilutions). […] The blank incubation value was subtracted from all control and sample values. To determine the IC50 a sigmoidal curve was fitted to the plot of % inhibition of control P-IKKα levels versus Log10 compound concentration.

[2] = tested on: KMS12-BM (NIK WT) multiple myeloma cells; assay: Antiproliferative activity on KMS12-BM multiple myeloma cells (CellTiter-Glo); format: cell-based, human; conditions: Homo sapiens, KMS-12-BM, 96 hr treatment, averaged values, read-out: KMS-12 Proliferation inhibition (IC50 (nM))
Description: (§1) Determination of Antiproliferative Activity on JJN-3 (NIK Translocated) and KMS12-BM (NIK WT) Multiple Myeloma Cells
(§2) All compounds tested were dissolved in DMSO and further dilutions were made in culture medium. Final DMSO concentration was 0.3% (v/v) in cell proliferation assays. Viability was assessed using CellTiter-Glo cell viability assay kit (Promega). […] Cells were routinely kept as suspension cells at 37° C. in a humidified 5% CO2 atmosphere. Cells were passaged at a seeding density of 0.2×10^6/ml twice a week. Cells were seeded in black tissue culture treated 96-well plates (Perkin Elmer). Densities used for plating ranged from 15000 (JJN3) to 20000 (KMS12BM) cells per well in a total volume of 135 μl medium. Drugs and/or solvents were added (15 μl) to a final volume of 150 μl. Following 96 hr of treatment, plates were removed from the incubator and allowed to equilibrate to room temperature for approx 10 min. 75 μl CellTiter-Glo reagent was added to each well that was then covered (Perkin Elmer Topseal) and shaken on plate shaker for 10 min. Luminescence was measured on a HTS Topcount (Perkin Elmer). […] For initial screening purposes, compounds were tested using a 9 point dilution curve (serial 1:3 dilutions). For each experiment, controls (containing no drug) and a blank incubation (containing cells read at the time of compound addition) were run in parallel. The blank value was subtracted from all control and sample values. For each sample, the mean value for cell growth (in relative light units) was expressed as a percentage of the mean value for cell growth of the control.

[3] = target: recombinant human NF-kappaB-inducing Kinase (NIK/MAP3K14) (Homo sapiens, UniProt Q99558); assay: Inhibition of auto-phosphorylation of recombinant human NIK/MAP3K14 activity (AlphaScreen); format: biochemical; conditions: 25 microM ATP, averaged over all measurements on all batches
Description: Pharmacological Part Biological assay A Inhibition of auto-phosphorylation of recombinant human NF-kappaB-inducing Kinase (NIK/MAP3K14) Activity (AlphaScreen®)
NIK/MAP3K14 auto-phosphorylation activity was measured using the AlphaScreen® (αscreen) format (Perkin Elmer). All compounds tested were dissolved in dimethyl sulfoxide (DMSO) and further dilutions were made in assay buffer. Final DMSO concentration was 1% (v/v) in assays. Assay buffer was 50 mM Tris pH 7.5 containing 1 mM EGTA (ethylene glycol tetraacetic acid), 1 mM DTT (dithiothreitol), 0.1 mM Na3VO4, 5 mM MgCl2, 0.01% Tween® 20. Assays were carried out in 384 well Alphaplates (Perkin Elmer). […] Incubations were initiated by addition of GST-tagged NIK/MAP3K14 enzyme, carried out for 1 h at 25° C. and terminated by addition of stop buffer containing anti-phospho-IKK Ser176/180 antibody. Protein A Acceptor and Glutathione-Donor beads were added before reading using an EnVision® Multilabel Plate Reader (Perkin Elmer). Signal obtained in the wells containing blank samples was subtracted from all other wells and IC50's were determined by fitting a sigmoidal curve to % inhibition of control versus Log10 compound concentration.

[4] = tested on: JJN-3 (NIK translocated) multiple myeloma cells; assay: Antiproliferative activity on JJN-3 multiple myeloma cells (CellTiter-Glo); format: cell-based, human; conditions: Homo sapiens, JJN-3 (NIK translocated) cells, 96 hr treatment, averaged values, read-out: JJN-3 Proliferation inhibition (IC50 (nM))
Description: as §1, §2

Sequence of recombinant human NF-kappaB-inducing Kinase (NIK/MAP3K14) (Q99558 whole entry): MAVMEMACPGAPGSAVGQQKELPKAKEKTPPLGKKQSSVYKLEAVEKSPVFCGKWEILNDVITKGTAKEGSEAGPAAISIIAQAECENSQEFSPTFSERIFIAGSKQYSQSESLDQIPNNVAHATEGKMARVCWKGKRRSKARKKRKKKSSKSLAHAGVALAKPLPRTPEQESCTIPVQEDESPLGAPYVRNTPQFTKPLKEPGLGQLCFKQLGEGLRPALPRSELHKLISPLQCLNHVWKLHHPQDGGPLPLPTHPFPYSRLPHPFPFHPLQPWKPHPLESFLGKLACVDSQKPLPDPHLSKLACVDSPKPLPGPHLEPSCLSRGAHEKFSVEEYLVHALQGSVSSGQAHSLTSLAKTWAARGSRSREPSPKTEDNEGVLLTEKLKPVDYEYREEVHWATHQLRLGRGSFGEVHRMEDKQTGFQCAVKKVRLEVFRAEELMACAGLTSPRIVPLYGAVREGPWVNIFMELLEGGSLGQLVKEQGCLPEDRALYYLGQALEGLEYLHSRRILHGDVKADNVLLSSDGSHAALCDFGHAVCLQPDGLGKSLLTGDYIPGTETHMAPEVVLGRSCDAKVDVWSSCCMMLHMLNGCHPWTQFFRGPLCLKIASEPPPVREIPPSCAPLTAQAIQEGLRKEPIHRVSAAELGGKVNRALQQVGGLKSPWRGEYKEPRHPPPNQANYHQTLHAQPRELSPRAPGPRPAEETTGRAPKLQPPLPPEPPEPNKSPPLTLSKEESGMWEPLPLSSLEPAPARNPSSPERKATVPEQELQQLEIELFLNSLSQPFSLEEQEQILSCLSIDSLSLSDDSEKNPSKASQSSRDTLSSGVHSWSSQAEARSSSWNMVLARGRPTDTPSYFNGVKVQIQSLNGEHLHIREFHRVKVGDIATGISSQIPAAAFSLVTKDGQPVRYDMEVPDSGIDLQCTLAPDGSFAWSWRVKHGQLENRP

Cc1cnc(CCC(=O)N(C)C)c(Nc2nccc(-c3cc(C#N)c4c(c3)[C@@](C)(CO)CN4)n2)c1 [Compound 80]
IC50 [1]: 38.9 nM | IC50 ([2]; 96 h): > 10000 nM | IC50 [3]: 3.7 nM | IC50 ([4]; JJN-3, 96 h): 525 nM

C[C@]1(CO)CNc2c(C#N)cc(-c3ccnc(Nc4cc(C#N)cnc4OC4CC4)n3)cc21 [Compound 85]
IC50 [1]: 3 nM | IC50 ([2]; 96 h): > 10000 nM | IC50 [3]: 2.5 nM | IC50 ([4]; JJN-3, 96 h): 372 nM

COCCOc1ncc(C2CC2)cc1Nc1nccc(-c2cc(C#N)c3c(c2)[C@@](C)(CO)CN3)n1 [Compound 67]
IC50 [1]: 186 nM | IC50 ([2]; 96 h): > 10000 nM | IC50 [3]: 12.3 nM | IC50 ([4]; JJN-3, 96 h): 204 nM

Cc1cc(Nc2nccc(-c3cc(C#N)c4c(c3)[C@@](C)(CO)CN4)n2)c(=O)n(CC2COCCN2C)c1 (stereo partly drawn) [Compound 26i]
IC50 [1]: 2.3 nM | IC50 ([2]; 96 h): > 10000 nM | IC50 [3]: 2.1 nM | IC50 ([4]; JJN-3, 96 h): 28 nM

CC(C)(CO)Oc1ncc(C#N)cc1Nc1nccc(-c2cc(C#N)c3c(c2)[C@@](C)(CO)CN3)n1 [Compound 78]
IC50 [1]: 28.2 nM | IC50 ([2]; 96 h): > 10000 nM | IC50 [3]: 4.7 nM | IC50 ([4]; JJN-3, 96 h): 589 nM

CC(C)Oc1nc(P(C)(C)=O)ccc1Nc1nccc(-c2cc(C#N)c3c(c2)[C@@](C)(CO)CN3)n1 [Compound 57]
IC50 [1]: 13.8 nM | IC50 ([2]; 96 h): ~8130 nM | IC50 [3]: 4.3 nM | IC50 ([4]; JJN-3, 96 h): 316 nM

Cc1cc(Nc2nccc(-c3cc(C#N)c4c(c3)[C@@](C)(CO)CN4)n2)c(=O)n(CCN2CCOCC2)c1 [Compound 7i]
IC50 [1]: 3.7 nM | IC50 ([2]; 96 h): 9550 nM | IC50 [3]: 1.2 nM | IC50 ([4]; JJN-3, 96 h): 115 nM

COc1ncccc1Nc1ncnc(-c2cc(C#N)c3c(c2)[C@@](C)(CO)CN3)n1 [Compound 181]
IC50 [1]: 25.1 nM | IC50 [3]: 5.2 nM

CN1CCC(c2cc(Nc3nccc(-c4cc(C#N)c5c(c4)[C@@](C)(CO)CN5)n3)c(=O)n(CC3CC3)c2)CC1 [Compound 21i]
IC50 [1]: 550 nM | IC50 [3]: 64.6 nM

CC1(CO)CNc2c(C#N)cc(-c3ccnc(Nc4cccnc4C(F)(F)F)n3)cc21 (stereo not drawn) [Compound 31]
melting point: 202 °C | IC50 ([2]; 96 h): > 10000 nM | IC50 [3]: 9.8 nM | IC50 ([4]; JJN-3, 96 h): 2000 nM

CNC(=O)c1ncc(Cl)cc1Nc1nccc(-c2cc(C#N)c3c(c2)C(C)(CO)CN3)n1 (stereo not drawn) [Compound 178]
IC50 [1]: 51.3 nM | IC50 [3]: 18.2 nM

C[C@]1(CO)CNc2c(C#N)cc(-c3ccnc(Nc4cccnc4O[C@@H]4CCCOC4)n3)cc21 [Compound 27]
melting point: 149 °C | IC50 ([2]; 96 h): 7410 nM | IC50 [3]: 3.6 nM | IC50 ([4]; JJN-3, 96 h): 1510 nM

COCCOc1nc(C2CC2)ccc1Nc1nccc(-c2cc(C#N)c3c(c2)[C@@](C)(CO)CN3)n1 [Compound 62]
melting point: 117 °C | IC50 ([2]; 96 h): > 10000 nM | IC50 [3]: 29.5 nM | IC50 ([4]; JJN-3, 96 h): 977 nM

CCOc1ncccc1Nc1nccc(-c2cc(C#N)c3c(c2)C(C)(CO)CN3)n1 (stereo not drawn) [Compound 16]
melting point: 248 °C | IC50 ([2]; 96 h): > 10000 nM | IC50 [3]: 3.8 nM | IC50 ([4]; JJN-3, 96 h): 245 nM

CC1(CO)CNc2c(C#N)cc(-c3ccnc(Nc4cc(Cl)cnc4Cl)n3)cc21 (stereo not drawn) [Compound 5]
melting point: 261 °C | IC50 ([2]; 96 h): > 10000 nM | IC50 [3]: ~8.51 nM | IC50 ([4]; JJN-3, 96 h): 170 nM

COc1ncccc1Nc1ncc(F)c(-c2cc(C#N)c3c(c2)C(C)(CO)CN3)n1 (stereo not drawn) [Compound 101]
melting point: > 250 °C | IC50 ([2]; 96 h): 2460 nM | IC50 [3]: 2.2 nM | IC50 ([4]; JJN-3, 96 h): 204 nM

COc1nc(C)ncc1Nc1nccc(-c2cc(C#N)c3c(c2)[C@@](C)(CO)CN3)n1 [Compound 129]
melting point: 223 °C | IC50 ([2]; 96 h): > 10000 nM | IC50 [3]: 1.8 nM | IC50 ([4]; JJN-3, 96 h): 562 nM

COc1cccnc1Nc1nccc(-c2cc(C#N)c3c(c2)[C@@](C)(CO)CN3)n1 [Compound 24]
melting point: 145 °C | IC50 ([2]; 96 h): > 10000 nM | IC50 [3]: 123 nM | IC50 ([4]; JJN-3, 96 h): 6920 nM

CC1(CO)CNc2c(C#N)cc(-c3ccnc(Nc4cc(Cl)cnc4C(=O)N4CCCC4)n3)cc21 (stereo not drawn) [Compound 179]
IC50 [1]: 1440 nM | IC50 [3]: 93.3 nM

COc1ncccc1Nc1nccc(-c2cc(C#N)c3c(c2)C(C)(CN2CCOCC2)CN3)n1 (stereo not drawn) [Compound 113]
melting point: 95 °C | IC50 ([2]; 96 h): > 10000 nM | IC50 [3]: 34.7 nM | IC50 ([4]; JJN-3, 96 h): 5750 nM

COCCNc1nc(OC)c(Nc2nccc(-c3cc(C#N)c4c(c3)[C@@](C)(CO)CN4)n2)cc1Cl [Compound 10]
melting point: 231 °C | IC50 ([2]; 96 h): > 10000 nM | IC50 [3]: 8.5 nM | IC50 ([4]; JJN-3, 96 h): 58 nM

COCCOc1nc(C)ncc1Nc1nccc(-c2cc(C#N)c3c(c2)[C@@](C)(CO)CN3)n1 [Compound 136]
melting point: 231 °C | IC50 ([2]; 96 h): > 10000 nM | IC50 [3]: 18.2 nM | IC50 ([4]; JJN-3, 96 h): 2000 nM

COCCOc1ncc(Cl)cc1Nc1nccc(-c2cc(C#N)c3c(c2)[C@@](C)(CO)CN3)n1 [Compound 39]
melting point: 204 °C | IC50 ([2]; 96 h): > 10000 nM | IC50 [3]: 8.5 nM | IC50 ([4]; JJN-3, 96 h): 324 nM

COc1ncccc1Nc1nccc(-c2cc(C#N)c3c(c2)C(C)(CO)CN3)n1 (stereo not drawn) [Compound 1]
IC50 [1]: 81.3 nM | IC50 ([2]; 96 h): ~2690 nM | IC50 ([4]; JJN-3, 96 h): 79 nM

CC(C)Oc1ncccc1Nc1nccc(-c2cc(C#N)c3c(c2)C(C)(CO)CN3)n1 (stereo not drawn) [Compound 18]
melting point: 140 °C | IC50 ([2]; 96 h): > 10000 nM | IC50 [3]: 9.1 nM | IC50 ([4]; JJN-3, 96 h): 776 nM

CC(C)OCCOc1ncc(Cl)cc1Nc1nccc(-c2cc(C#N)c3c(c2)[C@@](C)(CO)CN3)n1 [Compound 21]
melting point: 170 °C | IC50 [2]: > 10000 nM | IC50 [3]: 22.4 nM | IC50 [4]: 813 nM

COCCNc1nc(OC)c(Nc2nccc(-c3cc(C#N)c4c(c3)[C@](C)(CO)CN4)n2)cc1Cl [Compound 11]
melting point: 236 °C | IC50 ([2]; 96 h): > 10000 nM | IC50 [3]: 10.5 nM | IC50 ([4]; JJN-3, 96 h): ~347 nM

COc1ncccc1Nc1nccc(-c2cc(C#N)c3c(c2)[C@](C)(CO)CN3)n1 [Compound 7]
melting point: 245 °C | IC50 ([2]; 96 h): > 10000 nM | IC50 [3]: 15.5 nM | IC50 ([4]; JJN-3, 96 h): 1580 nM

CC(C)OCCOc1ncccc1Nc1nccc(-c2cc(C#N)c3c(c2)[C@@](C)(CO)CN3)n1 [Compound 19]
melting point: 154 °C | IC50 ([2]; 96 h): > 10000 nM | IC50 [3]: 14.5 nM | IC50 ([4]; JJN-3, 96 h): 912 nM

[2H]C([2H])([2H])Oc1ncccc1Nc1nccc(-c2cc(C#N)c3c(c2)C(C)(CO)CN3)n1 (stereo not drawn) [Compound 17]
melting point: 248 °C | IC50 ([2]; 96 h): > 10000 nM | IC50 [3]: 2.5 nM | IC50 ([4]; JJN-3, 96 h): 288 nM
